The test system of the assay is NLRP3. Nature of the assay: IL-1β secretion assay in PMA-differentiated, LPS/nigericin-stimulated THP-1 cells (384-well, ELISA read-out). It is filed as cell-based, human. How it is done: Compounds as provided herein were tested in the following assay. Cell culture medium employed contained RPMI 1640 medium (89%), FBS (10%), Pen/Strep (1%), and 2-mercaptoethanol (0.05 mM). Freezing medium was made up of 90% FBS and 10% DMSO. THP-1 cells were removed from the liquid nitrogen and placed into a 37° C. water bath to thaw, until signs of ice dissipated. The cells were then added to 9 mL of warm cell culture medium and centrifuged for 5 minutes at 1000 rpm. The supernatant was discarded, and the cells were resuspended in new cell culture medium. THP-1 cells were then split and cultured in the cell culture medium, being passaged every 2-3 days with the cell density will be maintained between 5×10^5 and 1.5×10^6 viable cells/mL.
To freeze, cells were resuspended with fresh freezing medium, adjusting the cell density to 5×10^6 cells/mL. The cell suspension was partitioned into 1 mL aliquots per vial, and the vials were transferred to a −80° C. freezer. After one day at −80° C., the cell vials were transferred to liquid nitrogen freezer for storage.
PMA was dissolved in DMSO to make a stock solution at 5 mg/mL and stored in 10 μl aliquots at −20° C. for single use. PMA is added to normal growth medium. LPS was diluted with 1 mL of water solution to provide a 1 mg/mL stock solution and stored in 15 μl aliquots at −20° C. for single use. Nigericin is diluted in ice cold 100% ethanol to 5 mg/mL (6.7 mM) and stored in 75 μL aliquots at −20° C. for single use. Serum-free media contains RPMI 1640 medium (99%), Pen/Strep (1%), and 2-mercaptoethanol (0.05 mM). The two control conditions used to qualify and normalize test compound dose-response curves were as follows: High Control=25 ng/mL LPS, 5 μM Nigericin, 0.5% DMSO, Low Control=25 ng/mL, LPS, 0.5% DMSO.
THP-1 cells were diluted to provide a suspension at a concentration of 1.0×10^6 cells/mL with the total volume of suspension required to enable the desired number of assay plates. The growth media was supplemented with PMA (5 ng/mL final concentration) and the cells were incubated at 37° C. under a humidified atmosphere of 5% CO2 for 40 h.
All media was carefully aspirated from each culture flask. The cells were washed carefully with 1×DPBS. The cells were then briefly digested with trypsin LE for 5 minutes at 23° C., and immediately resuspended in cell growth media. After resuspension, the cells were centrifuged at 1000 rpm for 3 minutes and the supernatant was discarded. The cells were resuspended in DPBS and once again centrifuged at 1000 rpm for 5 minutes. The supernatant was discarded and the cell pellet was resuspended in serum-free media supplemented with LPS (25 ng/mL final concentration) to enable the distribution of 30K THP-1 cells within 45 μL of media into each well of 384-well PDL-coated plates. The 384-well plates were then incubated at 37° C. under a humidified atmosphere of 5% CO2 for 2 h. Following this period, test compounds were dispensed by Tecan across the desired concentration range with all wells normalized to a final 0.5% DMSO concentration. The plates were then incubated at 37° C. under a humidified atmosphere of 5% CO2 for 1 h. Following this period, 5 μL of the […] was added to each of the appropriate wells and plates were centrifuged at 1000 rpm for 30 seconds. The plates were the immediately reintroduced to the incubator at 37° C. under a humidified atmosphere of 5% CO2 for 2 h. After this time, 35 μL/well of supernatant was collected and transferred into v-bottom plate and centrifuged at 1000 rpm for 1 minute. These supernatant aliquots were analyzed using an IL-Iβ detection kit as described below. If needed, the test samples could be snap frozen and stored at −80° C. until analyzed.
To prepare each ELISA plate, capture antibody (mAb Mt175) was diluted with PBS to a final concentration of 2 μg/mL and then 20 μL of this solution was added to each well of the ELISA plate. Each plate was allowed to incubate overnight at 4° C.
For orientation: ELISA stands for enzyme-linked immunosorbent assay.

Setting [1] is: IL-1β secretion, PMA-differentiated THP-1 cells, LPS then nigericin stimulation, ELISA read at 450 nm, read-out: Activity.
[2] abbreviates: Table 4, IL-1β secretion, LPS/nigericin-stimulated THP-1 cells, read-out: IC50.
The mark [3] stands for this setting: Homo sapiens, THP-1, IL-1β secretion, PMA-differentiated THP-1 cells, LPS then nigericin stimulation, ELISA read at 450 nm, read-out: Activity.

SMILES strings stand for the structures. Where two headings read alike, the source gives them in different places.

Regarding `O=C(CN1C[C@@]2(C[C@@H]2F)c2cc(C(F)(F)F)ccc2C1=O)Nc1ncc(Cl)cn1` (single isomer, unassigned) [Example 239, N-(5-chloropyrimidin-2-yl)-2-[(2′s,4r)-2′-fluoro-1-oxo-6-(trifluoromethyl)spiro[3H-isoquinoline-4,1′-cyclopropane]-2-yl]acetamide], the IC50 is, setting by setting: under setting [1], less than 10000 nM; under setting [2], 37 nM.
On to `O=C(CN1C[C@@]2(C[C@@H]2F)c2cc(C(F)(F)F)ccc2C1=O)Nc1ncccn1` (single isomer, unassigned) [Example 240, 2-[(2′s,4r)-2′-fluoro-1-oxo-6-(trifluoromethyl)spiro[3H-isoquinoline-4,1′-cyclopropane]-2-yl]-N-pyrimidin-2-ylacetamide], for which the IC50 under setting [3] is less than 10000 nM and the IC50 under setting [2] was determined as 1220 nM.
`O=C(CN1C[C@@]2(C[C@@H]2F)c2cc(C(F)(F)F)ccc2C1=O)Nc1ncccn1` (single isomer, unassigned) [Example 241, 2-[(2′s,4r)-2′-fluoro-1-oxo-6-(trifluoromethyl)spiro[3H-isoquinoline-4,1′-cyclopropane]-2-yl]-N-pyrimidin-2-ylacetamide]: the IC50 reads like this: under setting [1], less than 10000 nM; under setting [2], 134 nM.
With `O=C(CN1C[C@@]2(C[C@@H]2F)c2cc(C(F)(F)F)ccc2C1=O)Nc1ncc(C(F)(F)F)cn1` (single isomer, unassigned) [Example 242, 2-[(2′s,4r)-2′-fluoro-1-oxo-6-(trifluoromethyl)spiro[3H-isoquinoline-4,1′-cyclopropane]-2-yl]-N-[5-(trifluoromethyl)pyrimidin-2-yl]acetamide], the IC50 is, setting by setting: under setting [3], less than 10000 nM; under setting [2], 1290 nM.
Turning to `O=C(CN1C[C@@]2(C[C@@H]2F)c2cc(C(F)(F)F)ccc2C1=O)Nc1ncc(C(F)(F)F)cn1` (single isomer, unassigned) [Example 243, 2-[(2′s,4r)-2′-fluoro-1-oxo-6-(trifluoromethyl)spiro[3H-isoquinoline-4,1′-cyclopropane]-2-yl]-N-[5-(trifluoromethyl)pyrimidin-2-yl]acetamide], the IC50 under setting [1] was less than 10000 nM and the IC50 under setting [2] is 95 nM.
For `Cc1cnc(NC(=O)CN2C[C@@]3(C[C@@H]3F)c3cc(C(F)(F)F)ccc3C2=O)nc1` (single isomer, unassigned) [Example 244, 2-[(2′s,4r)-2′-fluoro-1-oxo-6-(trifluoromethyl)spiro[3H-isoquinoline-4,1′-cyclopropane]-2-yl]-N-(5-methylpyrimidin-2-yl)acetamide], the IC50 runs as follows: under setting [3], less than 10000 nM; under setting [2], 75 nM.
In the case of `Cc1cnc(NC(=O)CN2C[C@@]3(C[C@@H]3F)c3cc(C(F)(F)F)ccc3C2=O)nc1` (single isomer, unassigned) [Example 245, 2-[(2′s,4r)-2′-fluoro-1-oxo-6-(trifluoromethyl)spiro[3H-isoquinoline-4,1′-cyclopropane]-2-yl]-N-(5-methylpyrimidin-2-yl)acetamide], the IC50 is less than 10000 nM under setting [1] and 938 nM under setting [2].
In the case of `O=C(CN1CC2(CC2)c2cc([C@@]3(F)C[C@@H]3F)ccc2C1=O)Nc1ncc(F)cn1` (single isomer, unassigned) [Example 251, 2-[6-[(1r,2r)-1,2-difluorocyclopropyl]-1-oxospiro[3H-isoquinoline-4,1′-cyclopropane]-2-yl]-N-(5-fluoropyrimidin-2-yl)acetamide], the IC50 under setting [3] was less than 10000 nM and the IC50 (Homo sapiens, THP-1, Table 4, IL-1β secretion, LPS/nigericin-stimulated THP-1 cells, read-out: IC50) turned out to be 550 nM.
As for `O=C(CN1CC2(CC2)c2cc([C@@]3(F)C[C@@H]3F)ccc2C1=O)Nc1ncc(F)cn1` (single isomer, unassigned) [Example 252, 2-[6-[(1r,2r)-1,2-difluorocyclopropyl]-1-oxospiro[3H-isoquinoline-4,1′-cyclopropane]-2-yl]-N-(5-fluoropyrimidin-2-yl)acetamide], the IC50 under setting [1] is less than 10000 nM and the IC50 under setting [2] stood at 454 nM.

The values are drawn from patent US20230416205A1, “COMPOUNDS, COMPOSITIONS, AND METHODS” (Denali Therapeutics Inc, priority 2020, published 2023).
